From patent publication US20260347399A1, “BRAIN PENETRATING PEPTIDES AND METHODS OF USE” (priority 2022, published 2026)
Ends that are not written are not given here.

Columns and labels:
22 different cell-lines = assay: CVGTNCY peptide-phage binding on cell lines; format: cell-based, human or mouse; settings: +4 °C, 1 h; over control phage G7
Experimental: 22 different cell-lines derived from human or mouse tumors or normal tissues were used in the experiments (Table 4).
To evaluate the CVGTNCY (SEQ ID NO:2) peptide-phage binding on cell lines, the CVGTNCY (SEQ ID NO:2) peptide-phage and control G7 phage were incubated on attached cells (except NCH421k cells that grow as speroids) in DMEM-0.5% BSA for 1 hour at +4 °C. Thereafter, the cells were washed four times with DMEM-0.5% BSA and phage was released in 1% NP40-LB to determine the titer of the samples.
An in vitro proximity labeling method was planned to use for the identification of the CVGTNCY (SEQ ID NO:2) peptide receptor. To accomplish receptor search, binding of CVGTNCY (SEQ ID NO:2) peptide-phage on 22 different cell-lines isolated from various tumors and normal tissues was tested.

NRP-1 = target: T1, NRP-1 (Homo sapiens, UniProt O14786); assay: Peptide-phage binding on ELISA plate
T1 sequence (O14786 273-586 limits assumed): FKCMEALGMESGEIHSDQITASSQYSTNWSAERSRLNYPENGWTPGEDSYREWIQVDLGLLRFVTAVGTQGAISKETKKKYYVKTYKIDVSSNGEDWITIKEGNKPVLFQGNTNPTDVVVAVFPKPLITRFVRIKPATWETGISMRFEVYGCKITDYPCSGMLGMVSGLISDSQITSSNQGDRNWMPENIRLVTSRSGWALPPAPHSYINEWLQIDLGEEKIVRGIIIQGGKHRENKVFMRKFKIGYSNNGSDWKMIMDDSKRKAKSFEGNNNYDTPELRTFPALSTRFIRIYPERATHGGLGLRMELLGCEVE
Experimental: (§1) Reelin protein (#8546-MR-050; R&D Systems), NRP-1 b1b2 (wt and mutant) or 5% BSA was immobilized on Costar 96-Well ELISA plate (#3590, Corning Life Sciences, Tewksbury, MA, USA). The multiwell plates were coated with 20 μg/ml recombinant protein in 100 μl of PBS overnight at +4 °C, followed by blocking with 1% bovine serum albumin (BSA) in PBS overnight at +4 °C. The phage (5×10^8 pfu in 100 μl of PBS-BSA) was incubated overnight at +4 °C, followed by 6 washes with PBS containing 1% BSA and 0.1% Tween-20 (washing buffer) to remove background phages. BLT5615 OD600=0.5 containing 2 mM IPTG was used to recover the phages and determine the titer of samples.
(§2) Next, an affinity chromatography was performed to identify a receptor of the CVGTNCY (SEQ ID NO:2), and selected a receptor candidate, which is a secreted extracellular matrix protein Reelin. CVGTNCY (SEQ ID NO:2) binding to Reelin protein was tested by cell free method on ELISA plate. Recombinant human Reelin protein (Ser1221-Gln2666; 163 kDa) was used to coat the ELISA plate and the CVGTNCY (SEQ ID NO:2) peptide-phage was allowed to bind to it. After several washes, the titer of the experiment was determined to rate on the binding efficiency.
(§3) Reelin was identified from affinity chromatography proteomics data. […] The binding efficiency was evaluated based on the titer (PFU/ml) of each sample. […]

mutant NRP1 = target: T2, mutant NRP1 (Homo sapiens, UniProt O14786); assay: Peptide-phage binding on ELISA plate
T2 sequence (O14786 273-586 limits assumed): T1 sequence (O14786 273-586 limits assumed)
Experimental: as §1, §2, §3

mouse brain = assay: Peptide-phage biodistribution after i.v. injection; format: in vivo
Experimental: (§4) For titering-based biodistribution studies, nucleotide sequences coding for peptides of interest were cloned into T7 phage genomic DNA to be expressed on the phage surface as C-terminal fusions to capsid protein. The cloning was performed using complementary oligonucleotides, the phage clones were amplified, and purified as described in (Põšnograjeva, et al., 2022). 5×10^9 pfu of peptide-phage clone was injected i.v. into male Balb/C mice or 5×10^10 pfu of phage was injected into female Sprague-Dawley rats (n=3). 60 min later, the animals were anesthetized and perfused with PBS. The tissues were collected, homogenized, and the amount of phage in tissue lysates was determined by titering using E. coli strain BLT5615.
A complete listing of peptides that were identified from Ion Torrent high throughput sequencing from bio-panning Round 5 is set forth in Table 1B.
The peptide-phage was injected i.v. and following 1 h circulation, the mice were perfused, brain and control organs were collected and phage titer in each tissue was determined. Insertless T7 phage was used as a negative control and a phage displaying BBB penetrating peptide Angiopep-2 (TFFYGGSRGKRNNFKTEEY; SEQ ID NO:97) was used for comparison. Cerepep phage achieved approximately 300-fold higher accumulation in mouse brain compared to control and Angiopep-2 phages (FIG. 2A; Peptide-phage accumulation in the brain. 5×10^9 pfu of phage was injected i.v. and following 1 h circulation mice were perfused with PBS. The amount of phage accumulated in the brain was determined by titering). To assess the brain distribution of […] (SEQ ID NO:9), the mouse brain was dissected to separate the olfactory bulbs, cerebellum, brain stem and the hemispheres before determining the titer in the tissue.
(§5) The brain selectivity of SRRVISRAKLAAAL (SEQ ID NO:9) phage following a systemic administration was studied in mice and rats by determining the titer of […] (SEQ ID NO:9) and control phage in multiple control tissues.

Neuro2A = assay: In vitro phage binding to cells; format: cell-based, mouse; settings: 4 °C, 1 h
Experimental: (§6) To assess the binding of Cerepep phage, the cells were cultured in 24-well plates on polylysine coated glass coverslips until 80-90% confluency. The cells were incubated with Cerepep or control insertless peptide-phage at a final concentration of 5×10^7 pfu in 1 ml of DMEM+BSA (1%) at 4 °C for 1 h on a rocking platform. The wells were washed 4 times with 1 ml of DMEM+BSA (1%), the cells were lysed in 1 ml LB+NP40 and the amount of phage bound to the cells was determined by titering.
(§7) Binding of SRRVISRAKLAAAL (SEQ ID NO:9) phage to a panel of different cell lines was studied in vitro.

WT GBM = assay: In vitro phage binding to cells; format: cell-based, mouse; settings: 4 °C, 1 h
Experimental: as §6, §7

rat brain = assay: Peptide-phage biodistribution after i.v. injection, rats; format: in vivo; settings: 1 h
Experimental: as §4, §5

binding to NRP-1 (NRP-1)	binding to mutant NRP1 (mutant NRP1)	Substance	peptide-phage binding on cell lines (22 different cell-lines)	homing preference (mouse brain; mouse, in vivo)	accumulation in mouse brain, fold over Angiopep-2 phage (mouse brain; peptide-phage 5×10^9 pfu i.v., 1 h, vs Angiopep-2 phage)	accumulation in mouse brain, fold over control phage (mouse brain; peptide-phage 5×10^9 pfu i.v., 1 h, vs insertless control phage)	accumulation in the brain, shorter versions of Pep1 (mouse brain; peptide-phage 5×10^9 pfu i.v., 1 h circulation)	brain selectivity (titer in brain vs control tissues) (mouse brain; peptide-phage i.v., 1 h, mice)	accumulation in brain regions and spinal cord (mouse brain; peptide-phage i.v., 1 h, olfactory bulbs, cerebellum, brain stem, hemispheres, spinal cord, compared to control phage)	binding of peptide-phage, fold over insertless phage (Neuro2A)	binding of peptide-phage, fold over insertless phage (WT GBM)	brain selectivity (titer in brain vs control tissues) (rat brain)
no binding was detected	no binding was detected	CVGTNCY	minimal binding	–	–	–	–	–	–	–	–	–
–	–	SRRVISRAKLAAAL [Cerepep, SRRVISRAKLAAAL]	–	homes preferentially to the eyes/brain/CNS	approximately 300 fold	approximately 300 fold	shortest peptide still achieving a high accumulation in the brain	highest accumulation in the brain and low accumulation in all other tested tissues	high accumulation in all tested brain regions as well as in the spinal cord	at least 50 fold	at least 50 fold	highest accumulation in the brain and low accumulation in all other tested tissues
